In ChEMBL document CHEMBL5543121, “Drug Repurposing of ACT001 to Discover Novel Promising Sulfide Prodrugs with Improved Safety and Potent Activity for Neutrophil-Mediated Antifungal Immunotherapy” (J Med Chem, 2024):
The source made the active and inactive calls. The rule behind the calls is not given here.

What was measured:
[1] = Inhibition of fungal curdlan induced PD-L1 expression in mouse neutrophils at 40 uM relative to control; assay type: functional, Neutrophil; conditions: Mus musculus, Neutrophil
[2] = Cytotoxicity against mouse neutrophils assessed as cell viability at 40 uM relative to control; assay type: toxicity, cell-based, Neutrophil; conditions: mouse neutrophils, read-out: Activity
Candida albicans [3] = assay: Antifungal activity against candida albicans SC5314 infected in mouse assessed as reduction in fungal burden in kidney at 200 mg/kg, po administered on day 1 and 3; assay type: functional, organism-based; conditions: time 1-3 day
[4] = system: Polymorphonuclear neutrophil; assay: Inhibition of fungal curdlan induced CXCL1 protein expression in mouse polymorphonuclear neutrophils at 40 uM incubated for 4 hrs by ELISA; assay type: functional, cell-based
[5] = Induction of apoptosis in mouse neutrophils assessed as live cells at 20 uM incubated for 16 hrs by Annexin V-FITC/PI staining based flow cytometry analysis (reference value: 46.6%); assay type: toxicity, cell-based, Neutrophil; conditions: read-out: Activity
Neutrophil [6] = assay: Induction of apoptosis in mouse neutrophils assessed as early apoptotic cells at 40 uM incubated for 16 hrs by Annexin V-FITC/PI staining based flow cytometry analysis (reference value: 26.9%); assay type: toxicity, cell-based
[7] = Inhibition of fungal curdlan induced PD-L1 expression in mouse neutrophils assessed as reduction in PD-L1 positive Ly6G positive neutrophils incubated for 16 hrs by flow cytometry analysis; assay type: functional, cell-based; conditions: Neutrophil
[8] = Therapeutic index, ratio of IC50 for cytotoxicity against mouse neutrophils to IC50 for inhibition of fungal curdlan induced PD-L1 expression in mouse neutrophils; assay type: toxicity; conditions: read-out: Ratio IC50
Neutrophil [9] = assay: Potency index, ratio of ACT001 IC50 to test compound IC50 for inhibition of fungal curdlan induced PD-L1 expression in mouse neutrophils assessed as reduction in PD-L1 positive Ly6G positive neutrophils incubated for 16 hrs by flow cytometry analysis; assay type: functional
[10] = Permeability of compound in PBS/EtOH (70:30) buffer incubated for 12 hrs by PAMPA-BBB assay; assay type: ADME; conditions: read-out: permeability
[11] = Half life in male Sprague-Dawley rat at 10 mg/kg, po by LC-MS/MS analysis; assay type: ADME, organism-based; conditions: in vivo
[12] = MRT (0 to t) in male Sprague-Dawley rat at 10 mg/kg, po by LC-MS/MS analysis; assay type: ADME, organism-based; conditions: in vivo
[13] = Initial plasma concentration in male Sprague-Dawley rat at 2 mg/kg, iv by LC-MS/MS analysis; assay type: ADME, organism-based
[14] = AUC (0 to t) in male Sprague-Dawley rat at 2 mg/kg, iv by LC-MS/MS analysis; assay type: ADME, organism-based; conditions: in vivo
[15] = Clearance in male Sprague-Dawley rat at 2 mg/kg, iv by LC-MS/MS analysis; assay type: ADME, organism-based; conditions: in vivo
[16] = MRT (0 to t) in male Sprague-Dawley rat at 2 mg/kg, iv by LC-MS/MS analysis; assay type: ADME, organism-based; conditions: in vivo
[17] = Volume of distribution at steady state in male Sprague-Dawley rat at 2 mg/kg, iv by LC-MS/MS analysis; assay type: ADME, organism-based; conditions: in vivo, read-out: Vdss
Candida albicans [18] = assay: Induction of neutrophil-mediated antifungal immunity against Candida albicans SC5314 infected in mouse assessed as inhibition of CXCL1 protein expression in bone marrow at 50 to 100 mg/kg, po administered once a day for 3 days by ELISA; assay type: functional, organism-based; conditions: dose 50-100 mg/kg, time 3.0 day
Neutrophil [19] = assay: Induction of neutrophil-mediated antifungal immunity against Candida albicans SC5314 infected in mouse assessed as increase in neutrophil infiltration in kidney at 50 to 100 mg/kg, po administered once a day for 3 days; assay type: functional, organism-based; conditions: dose 50-100 mg/kg, time 3.0 day
Candida albicans [20] = assay: Induction of neutrophil-mediated antifungal immunity against Candida albicans SC5314 infected in mouse assessed as increase in animal survival rate at 50 to 100 mg/kg, po administered once a day for 3 days; assay type: functional, organism-based; conditions: dose 50-100 mg/kg, time 3.0 day
Candida albicans [21] = assay: Induction of neutrophil-mediated antifungal immunity against Candida albicans SC5314 infected in mouse assessed as reduction in fungal clusters in kidney at 50 to 100 mg/kg, po administered once a day for 3 days by PAS staining based analysis; assay type: functional, organism-based; conditions: dose 50-100 mg/kg, time 3.0 day
Candida albicans [22] = assay: Antifungal activity against Candida albicans SC5314 assessed as inhibition of fungal growth at 0.25 to 128 ug/ml measured every 3 hrs for 24 hrs by absorbance based analysis; assay type: functional, organism-based; conditions: dose 0.25-128 µg/ml
[23] = target: Signal transducer and activator of transcription 3 (Homo sapiens, UniProt P40763); assay: Binding affinity to His-tagged human recombinant STAT3 assessed as dissociation constant by MST assay
Sequence of Signal transducer and activator of transcription 3 (P40763 whole entry): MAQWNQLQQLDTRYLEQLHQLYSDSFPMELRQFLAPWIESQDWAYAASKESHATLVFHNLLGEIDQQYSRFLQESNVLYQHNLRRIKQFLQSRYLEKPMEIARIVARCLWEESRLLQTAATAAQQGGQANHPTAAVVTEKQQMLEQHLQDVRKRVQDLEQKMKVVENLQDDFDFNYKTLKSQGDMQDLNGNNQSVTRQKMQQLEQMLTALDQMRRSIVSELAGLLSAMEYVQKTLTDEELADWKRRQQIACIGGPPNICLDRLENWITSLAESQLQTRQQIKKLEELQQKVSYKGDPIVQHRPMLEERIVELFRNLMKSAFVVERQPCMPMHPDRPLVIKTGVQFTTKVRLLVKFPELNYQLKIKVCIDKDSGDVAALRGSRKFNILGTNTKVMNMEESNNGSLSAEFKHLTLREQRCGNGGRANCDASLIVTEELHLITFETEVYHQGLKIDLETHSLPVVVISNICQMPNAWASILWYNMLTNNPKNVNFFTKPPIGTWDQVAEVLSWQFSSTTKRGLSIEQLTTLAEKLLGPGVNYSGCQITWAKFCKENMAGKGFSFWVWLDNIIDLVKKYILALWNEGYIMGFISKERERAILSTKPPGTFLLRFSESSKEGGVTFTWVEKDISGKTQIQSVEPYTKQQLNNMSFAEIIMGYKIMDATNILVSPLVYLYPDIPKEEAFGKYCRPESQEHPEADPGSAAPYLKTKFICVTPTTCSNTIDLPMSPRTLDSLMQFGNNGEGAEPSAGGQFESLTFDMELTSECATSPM

Neutrophil [24] = assay: Downregulation of phosphorylated STAT3 protein level at Ser727 residue in curdlan induced mouse bone marrow neutrophils at 40 uM measured upto 60 mins by Western blot analysis; assay type: functional, cell-based
Neutrophil [25] = assay: Effect on STAT3 protein level in curdlan induced mouse bone marrow neutrophils at 40 uM measured upto 60 mins by Western blot analysis; assay type: functional, cell-based
[26] = Acute toxicity in C57BL/6 mouse assessed as animal death at 500 mg/kg, po administered as single dose and measured every day for 14 days; assay type: organism-based; conditions: in vivo, 336 h, time 14 day
[27] = Acute toxicity in C57BL/6 mouse assessed as abnormal behavior at 500 mg/kg, po administered as single dose and measured every day for 14 days; assay type: organism-based; conditions: in vivo, 336 h, time 14 day
[28] = Acute toxicity in C57BL/6 mouse assessed as body weight loss at 500 mg/kg, po administered as single dose and measured every day for 14 days; assay type: organism-based; conditions: in vivo, 336 h, time 14 day
[29] = Subacute toxicity in C57BL/6 mouse assessed as body weight loss at 100 mg/kg, po administered daily for 14 days and measured every day; assay type: organism-based; conditions: in vivo, 336 h, time 14 day
[30] = Acute toxicity in C57BL/6 mouse assessed as change in liver weight at 500 mg/kg, po administered as single dose and measured after 14 days; assay type: organism-based; conditions: in vivo, 336 h, time 14 day
[31] = Acute toxicity in C57BL/6 mouse assessed as histopathological changes in spleen at 500 mg/kg, po administered as single dose and measured after 14 days; assay type: organism-based; conditions: in vivo, 336 h, time 14 day
[32] = Acute toxicity in C57BL/6 mouse assessed as histopathological changes in kidney at 500 mg/kg, po administered as single dose and measured after 14 days; assay type: organism-based; conditions: in vivo, 336 h, time 14 day
[33] = Subacute toxicity in C57BL/6 mouse assessed as change in heart weight at 100 mg/kg, po administered daily for 14 days; assay type: organism-based; conditions: in vivo, 336 h, time 14 day
[34] = Subacute toxicity in C57BL/6 mouse assessed as change in spleen weight at 100 mg/kg, po administered daily for 14 days; assay type: organism-based; conditions: in vivo, 336 h, time 14 day
[35] = Subacute toxicity in C57BL/6 mouse assessed as change in kidney weight at 100 mg/kg, po administered daily for 14 days; assay type: organism-based; conditions: in vivo, 336 h, time 14 day
[36] = Subacute toxicity in C57BL/6 mouse assessed as histopathological changes in liver at 100 mg/kg, po administered daily for 14 days; assay type: organism-based; conditions: in vivo, 336 h, time 14 day
[37] = Subacute toxicity in C57BL/6 mouse assessed as histopathological changes in spleen at 100 mg/kg, po administered daily for 14 days; assay type: organism-based; conditions: in vivo, 336 h, time 14 day
[38] = Subacute toxicity in C57BL/6 mouse assessed as histopathological changes in lung at 100 mg/kg, po administered daily for 14 days; assay type: organism-based; conditions: in vivo, 336 h, time 14 day
[39] = Acute toxicity in C57BL/6 mouse assessed as effect on ALT level in serum at 500 mg/kg, po administered as single dose and measured every day for 14 days; assay type: organism-based; conditions: in vivo, 336 h, time 14 day

Structure (SMILES): C[C@@]1(O)CC[C@]23O[C@@]2(C)CC[C@@H]2[C@H](OC(=O)[C@H]2CS(=O)(=O)c2c(Cl)cccc2Cl)[C@@H]13
- inhibition at 40 µM [1]: 80.2%
- viability at 40 µM [2]: 81.5%
- Activity (Candida albicans [3]): Active
- inhibition [4]: Active
- viability at 16 h, 20 µM [5]: 41.4%
- Activity (Neutrophil [6]): 28.5%
- IC50 [7]: 3760 nM
- selectivity ratio [8]: > 85.1
- Ratio IC50 (Neutrophil [9]): 4.46
- Papp at 12 h [10]: 1.22 ×10⁻⁶ cm/s
- half-life [11]: 1.46 h
- MRT last [12]: 1.74 h
- C0 [13]: 191 ng/mL
- AUC(0-t) [14]: 73.9 ng·h/mL
- clearance [15]: 453 mL/min/kg
- MRT last [16]: 0.25 h
- Vd [17]: 7.46 L/kg
- Activity (Candida albicans [18]): Active
- Activity (Neutrophil [19]): Active
- Activity (Candida albicans [20]): Active
- Activity (Candida albicans [21]): Active
- Activity (Candida albicans [22]): inactive
- Kd [23]: 90.5 nM
- Activity (Neutrophil [24]): Active
- Activity (Neutrophil [25]): inactive
- Activity [26]: Non-Toxic
- Activity [27]: Non-Toxic
- Activity [28]: Non-Toxic
- Activity [29]: Non-Toxic
- Activity [30]: Non-Toxic
- Activity [31]: Non-Toxic
- Activity [32]: Non-Toxic
- Activity [33]: Non-Toxic
- Activity [34]: Non-Toxic
- Activity [35]: Non-Toxic
- Activity [36]: Non-Toxic
- Activity [37]: Non-Toxic
- Activity [38]: Non-Toxic
- Activity [39]: Non-Toxic
